Data published in publication PMC12948427 (The Journal of Clinical Investigation, 2025).
“And” between values parts separate entries of the source, which are not always exact repeats. Identical values can stand only once. Like-named read-outs stand apart in the source and are kept apart here.

Columns and labels:
[1] = biological target: T1, hHgs 1-390 protein (Homo sapiens, UniProt O14964); test: biochemical
[2] = system: 17Cl-1 cells
[3] = biological target: T1, hHgs 1-390 protein
[4] = system: MHV

T1 sequence (O14964 1-390): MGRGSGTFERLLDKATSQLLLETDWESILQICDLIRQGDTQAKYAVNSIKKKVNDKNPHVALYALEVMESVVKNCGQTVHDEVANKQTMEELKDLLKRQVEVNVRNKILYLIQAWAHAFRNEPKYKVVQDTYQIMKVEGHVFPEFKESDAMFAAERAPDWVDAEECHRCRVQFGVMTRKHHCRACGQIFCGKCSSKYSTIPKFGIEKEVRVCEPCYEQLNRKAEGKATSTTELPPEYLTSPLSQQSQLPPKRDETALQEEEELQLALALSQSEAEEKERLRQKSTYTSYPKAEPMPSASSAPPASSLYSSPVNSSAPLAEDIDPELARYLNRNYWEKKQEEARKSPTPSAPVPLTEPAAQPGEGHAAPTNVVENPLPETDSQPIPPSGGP

Row | Structure (SMILES) | IC50 [1] | cell viability, Figures S9A, B, D-F ([2]; concentration 0.01) | cell viability, Figures S9A, B, D-F ([2]; concentration 0.03) | cell viability, Figures S9A, B, D-F ([2]; concentration 0.1) | cell viability, Figures S9A, B, D-F ([2]; concentration 0.3) | cell viability, Figures S9A, B, D-F ([2]; concentration 1) | cell viability, Figures S9A, B, D-F ([2]; concentration 3) | cell viability, Figures S9A, B, D-F ([2]; concentration 10) | cell viability, Figures S9A, B, D-F ([2]; concentration 25) | Polarization ([3]; 0.00610352 uM) | Polarization ([3]; 0.0244141 uM) | Polarization ([3]; 0.0976562 uM) | Polarization ([3]; 0.390625 uM) | Polarization ([3]; 1.5625 uM) | Polarization ([3]; 6.25 uM) | Polarization ([3]; 25 uM) | viability of infected cells (rescue of cytopathic effect), Figures S9G-L ([4]; concentration 10) | viability of infected cells (rescue of cytopathic effect), Figures S9G-L ([4]; concentration 30) | viability of infected cells (rescue of cytopathic effect), Figures S9G-L ([4]; concentration 100) | viability of infected cells (rescue of cytopathic effect), Figures S9G-L ([4]; concentration 300) | other results
1 | CC1=NN(c2ccc(C)c(C)c2)C(=O)/C1=N\Nc1cccc(-c2cccc(C(=O)O)c2)c1O [Eltrombopag, eltrombopag] | 1.52 µM | 104.545 and 104.221 | 100.327 and 102.614 and 102.288 | 99.1416 and 102.682 and 102.039 | 104.867 and 102.544 and 103.872 | 103.708 and 104.035 | 104.491 and 102.191 and 102.848 | 96.1957 and 94.8913 and 95.2174 | 58.804 and 63.1229 and 62.4585 | 143 and 142 | 147 and 141 | 143 and 140 | 145 and 149 | 107 and 109 | 80 and 76 | 89 | 40.6593 and 41.7582 and 41.3919 | 46.1538 and 47.2527 and 46.5201 | 46.1538 and 47.619 and 44.6886 | 42.4908 and 43.956 and 41.7582 | viability of infected cells (rescue of cytopathic effect), Figures S9G-L ([4]; concentration 1000): 41.3919 and 43.5897 and 40.6593; viability of infected cells (rescue of cytopathic effect), Figures S9G-L ([4]; concentration 3000): 40.293 and 41.7582; viability of infected cells (rescue of cytopathic effect), Figures S9G-L ([4]; concentration 10000): 45.0549 and 44.3223 and 43.5897; viability of infected cells (rescue of cytopathic effect), Figures S9G-L ([4]; concentration 25000): 23.7729 and 23.8095 and 24.0659
2 | CCOc1ccc2nc3cc(N)ccc3c(N)c2c1 [Ethacridine lactate, ethacridine lactate] | 7.14 µM | 101.299 and 101.948 and 102.597 | 100.98 and 101.961 and 102.614 | 100.429 and 99.7854 and 102.039 | 100.553 and 101.217 | 103.053 and 102.399 and 103.381 | 103.176 and 101.862 and 103.834 | 96.1957 and 98.8043 | 30.7973 and 30.3654 and 31.5947 | 140 and 149 | 140 and 144 | 143 | 137 and 141 | 134 and 136 | 102 and 105 | 73 and 70 | 29.3773 and 29.6337 and 29.1575 | 34.9451 and 36.63 and 36.4103 | 33.0403 and 35.0549 and 36.2271 | 32.8571 and 32.6374 and 34.6886 | Polarization ([3]; 100 uM): 68 and 66; viability of infected cells (rescue of cytopathic effect), Figures S9G-L ([4]; concentration 1000): 32.4176 and 32.0513 and 35.0916; viability of infected cells (rescue of cytopathic effect), Figures S9G-L ([4]; concentration 3000): 33.0037 and 32.1612 and 34.9817; viability of infected cells (rescue of cytopathic effect), Figures S9G-L ([4]; concentration 10000): 41.7582 and 41.0256 and 40.6593; viability of infected cells (rescue of cytopathic effect), Figures S9G-L ([4]; concentration 25000): 8.462 and 8.5348 and 8.278
